According to patent US20230024096A1, “BIFUNCTIONAL COMPOUNDS FOR THE TREATMENT OF CANCER” (Hoffmann-La Roche Inc., priority 2019, published 2023):

Target: T1, SMARCA2 (Homo sapiens, UniProt P51531)
T1 construct: endogenous in cells; host or cells: HT1080 (CRISPR HiBiT knock-in clone, generated in house)
Experiment: SMARCA2 HiBiT degradation assay (cellular)
Type: cell-based
Settings: table head names A549; for Emax: A549, 6 h incubation, Emax = amount of residual protein remaining in the cell following compound treatment; for DC50: 6 h incubation, HiBiT-tagged SMARCA2, luminescence read-out, read-out: HiBit A549 SMARCA2 IP (nM) 6 h

T1 sequence (P51531 whole entry): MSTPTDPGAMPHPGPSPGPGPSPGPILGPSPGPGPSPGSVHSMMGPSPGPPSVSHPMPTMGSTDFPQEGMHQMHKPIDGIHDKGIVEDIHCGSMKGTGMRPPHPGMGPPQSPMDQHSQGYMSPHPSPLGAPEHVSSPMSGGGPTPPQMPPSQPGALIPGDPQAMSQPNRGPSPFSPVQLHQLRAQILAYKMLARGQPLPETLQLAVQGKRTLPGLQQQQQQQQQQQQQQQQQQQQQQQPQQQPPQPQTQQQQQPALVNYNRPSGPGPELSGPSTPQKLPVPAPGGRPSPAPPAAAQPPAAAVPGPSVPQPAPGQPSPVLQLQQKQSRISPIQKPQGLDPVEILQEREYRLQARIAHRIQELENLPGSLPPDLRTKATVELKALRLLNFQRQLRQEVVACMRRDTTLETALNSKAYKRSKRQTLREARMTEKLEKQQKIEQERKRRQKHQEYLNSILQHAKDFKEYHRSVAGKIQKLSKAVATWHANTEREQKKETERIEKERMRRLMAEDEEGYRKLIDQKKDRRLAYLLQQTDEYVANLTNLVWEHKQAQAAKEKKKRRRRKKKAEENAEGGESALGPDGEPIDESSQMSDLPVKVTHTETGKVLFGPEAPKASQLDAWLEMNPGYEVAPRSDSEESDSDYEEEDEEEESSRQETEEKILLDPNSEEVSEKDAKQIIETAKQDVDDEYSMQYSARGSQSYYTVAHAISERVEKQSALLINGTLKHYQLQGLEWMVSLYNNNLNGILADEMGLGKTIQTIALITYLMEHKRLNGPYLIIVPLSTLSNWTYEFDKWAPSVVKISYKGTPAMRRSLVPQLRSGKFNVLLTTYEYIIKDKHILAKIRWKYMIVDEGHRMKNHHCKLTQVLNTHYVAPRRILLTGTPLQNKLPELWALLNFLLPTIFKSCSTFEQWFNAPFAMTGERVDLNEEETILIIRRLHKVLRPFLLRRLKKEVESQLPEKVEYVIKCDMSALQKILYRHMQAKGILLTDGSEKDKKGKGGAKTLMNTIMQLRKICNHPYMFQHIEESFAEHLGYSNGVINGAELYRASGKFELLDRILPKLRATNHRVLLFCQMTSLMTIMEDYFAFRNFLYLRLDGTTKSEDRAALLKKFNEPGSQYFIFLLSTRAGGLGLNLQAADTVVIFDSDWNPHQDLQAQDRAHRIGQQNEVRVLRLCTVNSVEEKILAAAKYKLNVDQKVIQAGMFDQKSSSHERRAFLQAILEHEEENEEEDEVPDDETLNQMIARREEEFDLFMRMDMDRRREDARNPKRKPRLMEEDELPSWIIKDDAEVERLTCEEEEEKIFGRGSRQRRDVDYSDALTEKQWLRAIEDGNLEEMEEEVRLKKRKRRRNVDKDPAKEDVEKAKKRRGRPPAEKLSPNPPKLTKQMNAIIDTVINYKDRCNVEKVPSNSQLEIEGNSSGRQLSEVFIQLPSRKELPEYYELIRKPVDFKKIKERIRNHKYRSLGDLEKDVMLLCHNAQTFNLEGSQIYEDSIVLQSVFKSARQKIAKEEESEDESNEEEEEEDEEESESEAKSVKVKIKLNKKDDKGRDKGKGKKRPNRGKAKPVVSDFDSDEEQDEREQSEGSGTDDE

For `Nc1nnc(-c2cc(F)ccc2O)cc1N1CC2CCC(C1)N2c1cccc(CN2CCN(C(=O)C3CCN(c4ccc5c(c4)C(=O)N(C4CCC(=O)NC4=O)C5=O)CC3)CC2)c1` (stereo not shown) [Example 158, 5-[4-[4-[[3-[3-[3-amino-6-(5-fluoro-2-hydroxy-phenyl)pyridazin-4-yl]-3,8-diazabicyclo[3.2.1]octan-8-yl]phenyl]methyl]piperazine-1-carbonyl]-1-piperidyl]-2-(2,6-dioxo-3-piperidyl)isoindoline-1,3-dione], the Emax was 5%.

With `Nc1nnc(-c2ccccc2O)cc1OC1CCCN(c2ccc(N3CCN(C(=O)CCCCCCCCN4CCN(c5ccc6c(c5)C(=O)N(C5CCC(=O)NC5=O)C6=O)CC4)CC3)cc2)C1` (stereo not shown) [Example 26, 5-[4-[9-[4-[4-[3-[3-amino-6-(2-hydroxyphenyl)pyridazin-4-yl]oxy-1-piperidyl]phenyl]piperazin-1-yl]-9-oxo-nonyl]piperazin-1-yl]-2-(2,6-dioxo-3-piperidyl)isoindoline-1,3-dione] the DC50 was 164 nM and the Emax was 63%.

In the case of `Nc1nnc(-c2ccccc2O)cc1N1CC2CCC(C1)N2c1cccc(CN2CCN(C(=O)CN3CCN(c4ccc(OC5CCC(=O)NC5=O)cc4)CC3)CC2)c1` (racemic) [Example 195, rac-3-[4-[4-[2-[4-[[3-[3-[3-Amino-6-(2-hydroxyphenyl)pyridazin-4-yl]-3,8-diazabicyclo[3.2.1]octan-8-yl]phenyl]methyl]piperazin-1-yl]-2-oxo-ethyl]piperazin-1-yl]phenoxy]piperidine-2,6-dione], the DC50 is reported as 72 nM and the Emax is reported as 60%.

Work on `Nc1nnc(-c2ccccc2O)cc1N1CC2CCC(C1)N2c1cc(F)cc(CN2CCN(C(=O)C3CCN(c4ccc5c(c4)C(=O)N(C4CCC(=O)NC4=O)C5=O)CC3)CC2)c1` (racemic) [Example 193, rac-5-[4-[4-[[3-[3-[3-Amino-6-(2-hydroxyphenyl)pyridazin-4-yl]-3,8-diazabicyclo[3.2.1]octan-8-yl]-5-fluoro-phenyl]methyl]piperazine-1-carbonyl]-1-piperidyl]-2-(2,6-dioxo-3-piperidyl)isoindoline-1,3-dione] yielded a DC50 of 51 nM and an Emax of 25%.

Compound `Nc1nnc(-c2ccccc2O)cc1O[C@@H]1CCCN(c2ccc(N3CCN(C(=O)CCCCCCCCn4cc(CNc5cccc6c5C(=O)N(C5CCC(=O)NC5=O)C6=O)nn4)CC3)cc2)C1` (mixture of isomers) [Example 62, 2-(2,6-dioxo-3-piperidyl)-4-[[1-[9-oxo-9-[4-[4-[rac-(3R)-3-[3-amino-6-(2-hydroxyphenyl)pyridazin-4-yl]oxy-1-piperidyl]phenyl]piperazin-1-yl]nonyl]triazol-4-yl]methylamino]isoindoline-1,3-dione] has a DC50 of 124 nM and an Emax of 33%.

For `Nc1nnc(-c2ccccc2O)cc1N1CC2CCC(C1)N2c1nccc(OCCN2CCN(CCCOC3CCN(c4ccc5c(c4)C(=O)N(C4CCC(=O)NC4=O)C5=O)CC3)CC2)n1` (racemic) [Example 161, rac-5-[4-[3-[4-[2-[2-[3-[3-Amino-6-(2-hydroxyphenyl)pyridazin-4-yl]-3,8-diazabicyclo[3.2.1]octan-8-yl]pyrimidin-4-yl]oxyethyl]piperazin-1-yl]propoxy]-1-piperidyl]-2-(2,6-dioxo-3-piperidyl)isoindoline-1,3-dione], the DC50 was 33 nM and the Emax was 30%.

Compound `Nc1nnc(-c2ccccc2O)cc1N1CC(Oc2cccc(N3CCN(C(=O)C4CCN(c5ccc6c(c5)C(=O)N(C5CCC(=O)NC5=O)C6=O)CC4)CC3)c2)C1` (racemic) [Example 152, rac-5-[4-[4-[3-[1-[3-amino-6-(2-hydroxyphenyl)pyridazin-4-yl]azetidin-3-yl]oxyphenyl]piperazine-1-carbonyl]-1-piperidyl]-2-(2,6-dioxo-3-piperidyl)isoindoline-1,3-dione] has a DC50 of 5 nM and an Emax of 42%.

Compound `Nc1nnc(-c2ccccc2O)cc1N1CC(Oc2ccc(C(=O)N3CCN(C(=O)C4CCN(c5ccc6c(c5)C(=O)N(C5CCC(=O)NC5=O)C6=O)CC4)CC3)c(C(F)(F)F)c2)C1` (racemic) [Example 132, rac-5-[4-[4-[4-[1-[3-amino-6-(2-hydroxyphenyl)pyridazin-4-yl]azetidin-3-yl]oxy-2-(trifluoromethyl)benzoyl]piperazine-1-carbonyl]-1-piperidyl]-2-(2,6-dioxo-3-piperidyl)isoindoline-1,3-dione] has a DC50 of 133 nM and an Emax of 44%.

Work on `Nc1nnc(-c2ccccc2O)cc1N1CC2CCC(C1)N2c1cccc(OCCN2CCN(C(=O)N3CCC(c4ccc(OC5CCC(=O)NC5=O)cc4)CC3)CC2)c1` (racemic) [Example 50, rac-3-[4-[1-[4-[2-[3-[3-[3-amino-6-(2-hydroxyphenyl)pyridazin-4-yl]-3,8-diazabicyclo[3.2.1]octan-8-yl]phenoxy]ethyl]piperazine-1-carbonyl]-4-piperidyl]phenoxy]piperidine-2,6-dione] yielded a DC50 of 16 nM and an Emax of 44%.

`Nc1nnc(-c2ccccc2O)cc1N1CC2CCC(C1)N2c1cccc(CC2CCN(C(=O)CCNc3cccc4c3C(=O)N(C3CCC(=O)NC3=O)C4=O)CC2)c1` (racemic) [Example 58, rac-4-[[3-[4-[[3-[3-[3-amino-6-(2-hydroxyphenyl)pyridazin-4-yl]-3,8-diazabicyclo[3.2.1]octan-8-yl]phenyl]methyl]-1-piperidyl]-3-oxo-propyl]amino]-2-(2,6-dioxo-3-piperidyl)isoindoline-1,3-dione] was tested, and the DC50 was 43 nM and the Emax was 59%.

With `Nc1nnc(-c2ccccc2O)cc1N1CCC(NC(=O)CN2CCC(c3ccc(OC4CCC(=O)NC4=O)cc3)CC2)(c2ccccc2)CC1` (stereo not shown) [Example 108, N-[1-[3-amino-6-(2-hydroxyphenyl)pyridazin-4-yl]-4-phenyl-4-piperidyl]-2-[4-[4-[(2,6-dioxo-3-piperidyl)oxy]phenyl]-1-piperidyl]acetamide] the DC50 was 109 nM and the Emax was 48%.

Compound `Nc1nnc(-c2ccccc2O)cc1N1CC2CCC(C1)N2c1cccc(OCCN2CCN(C(=O)CCC(=O)N3CCC(Nc4cccc5c4C(=O)N(C4CCC(=O)NC4=O)C5=O)CC3)CC2)c1` (racemic) [Example 20, rac-4-[[1-[4-[4-[2-[3-[3-[3-amino-6-(2-hydroxyphenyl)pyridazin-4-yl]-3,8-diazabicyclo[3.2.1]octan-8-yl]phenoxy]ethyl]piperazin-1-yl]-4-oxo-butanoyl]-4-piperidyl]amino]-2-(2,6-dioxo-3-piperidyl)isoindoline-1,3-dione] has a DC50 of 168 nM and an Emax of 49%.

`Nc1nnc(-c2ccccc2O)cc1N1CCC(C(=O)N2CC3(CN(C(=O)CC4CCN(c5ccc6c(c5)C(=O)N(C5CCC(=O)NC5=O)C6=O)CC4)C3)C2)(c2ccccc2)CC1` (stereo not shown) [Example 122, 5-(4-(2-(6-(1-(3-amino-6-(2-hydroxyphenyl)pyridazin-4-yl)-4-phenylpiperidine-4-carbonyl)-2,6-diazaspiro[3.3]heptan-2-yl)-2-oxoethyl)piperidin-1-yl)-2-(2,6-dioxopiperidin-3-yl)isoindoline-1,3-dione] was tested, and the DC50 was 70 nM and the Emax was 29%.

Work on `Nc1nnc(-c2ccccc2O)cc1OC1CCCN(c2ccc(N3CCN(CCCCCCCCCn4cc(CNc5cccc6c5C(=O)N(C5CCC(=O)NC5=O)C6=O)nn4)CC3)cc2)C1` (stereo not shown) [Example 37, 4-[[1-[9-[4-[4-[3-[3-amino-6-(2-hydroxyphenyl)pyridazin-4-yl]oxy-1-piperidyl]phenyl]piperazin-1-yl]nonyl]triazol-4-yl]methylamino]-2-(2,6-dioxo-3-piperidyl)isoindoline-1,3-dione] yielded a DC50 of 57 nM and an Emax of 34%.

`Nc1nnc(-c2ccccc2O)cc1N1CCC(CNC(=O)C2CCN(c3cccc4c3C(=O)N(C3CCC(=O)NC3=O)C4=O)CC2)(c2ccccc2)CC1` (stereo not shown) [Example 71, N-[[1-[3-amino-6-(2-hydroxyphenyl)pyridazin-4-yl]-4-phenyl-4-piperidyl]methyl]-1-[2-(2,6-dioxo-3-piperidyl)-1,3-dioxo-isoindolin-4-yl]piperidine-4-carboxamide] showed a DC50 of 326 nM and an Emax of 46%.

`Nc1nnc(-c2ccccc2O)cc1N1CCC(CNC(=O)CNc2cccc3c2C(=O)N(C2CCC(=O)NC2=O)C3=O)(c2ccccc2)CC1` (stereo not shown) [Example 76, N-((1-(3-amino-6-(2-hydroxyphenyl)pyridazin-4-yl)-4-phenylpiperidin-4-yl)methyl)-2-((2-(2,6-dioxopiperidin-3-yl)-1,3-dioxoisoindolin-4-yl)amino)acetamide] gave a DC50 of 221 nM and an Emax of 57%.

In the case of `Nc1nnc(-c2ccccc2O)cc1N1CC2CCC(C1)N2c1cccc(CN2CCN(C(=O)C3CN(c4ccc5c(c4)C(=O)N(C4CCC(=O)NC4=O)C5=O)C3)CC2)c1` (racemic) [Example 179, rac-5-[3-[4-[[3-[3-[3-amino-6-(2-hydroxyphenyl)pyridazin-4-yl]-3,8-diazabicyclo[3.2.1]octan-8-yl]phenyl]methyl]piperazine-1-carbonyl]azetidin-1-yl]-2-(2,6-dioxo-3-piperidyl)isoindoline-1,3-dione], the DC50 is reported as 100 nM and the Emax is reported as 39%.

For `Nc1nnc(-c2ccccc2O)cc1N1CCC(CNC(=O)CCNc2cccc3c2C(=O)N(C2CCC(=O)NC2=O)C3=O)(c2ccccc2)CC1` (stereo not shown) [Example 75, N-((1-(3-amino-6-(2-hydroxyphenyl)pyridazin-4-yl)-4-phenylpiperidin-4-yl)methyl)-3-((2-(2,6-dioxopiperidin-3-yl)-1,3-dioxoisoindolin-4-yl)amino)], the DC50 was 1430 nM and the Emax was 63%.

For `Nc1nnc(-c2ccccc2O)cc1N1CCC(C(=O)N2CC3(CN(C(=O)C4CCN(c5ccc6c(c5)C(=O)N(C5CCC(=O)NC5=O)C6=O)CC4)C3)C2)(c2ccccc2)CC1` (stereo not shown) [Example 121, 5-(4-(6-(1-(3-amino-6-(2-hydroxyphenyl)pyridazin-4-yl)-4-phenylpiperidine-4-carbonyl)-2,6-diazaspiro[3.3]heptane-2-carbonyl)piperidin-1-yl)-2-(2,6-dioxopiperidin-3-yl)isoindoline-1,3-dione], the DC50 was 47 nM and the Emax was 26%.
